Patent publication US10966959B2, “Use of a rotifer-derived compound and its analogs for preventing schistosomiasis” (Wisconsin Alumni Research Foundation, priority 2018, dated 2021)
“Also recorded” adds a separate entry of the source.

Key:
S. mansoni cercariae [1] = experiment: Cercarial paralysis assay; format: cell-based
Protocol: Infected B. glabrata snails provided by Biomedical Research Institute (BRI, Rockville, Md.) were maintained in artificial pond water and fed Layer Crumbles (chicken feed) (Rural King, Mattoon, Ill.). To obtain S. mansoni cercariae, B. glabrata snails were exposed to light at 26° C. for 1-2 hrs. Artificial pond water containing cercariae was passed through 100 μm cell strainer (Falcon, Corning Inc., Corning, N.Y.) to remove snail food and feces. Cercariae were then collected using custom-made 20 μm cell strainers.
Cercarial Paralysis Assay
To capture the whole field while avoiding excess reflected light in a well, we used the lid of 96-well plate (Costar, Corning Inc., Corning, N.Y.). 40 μL of artificial pond water containing ˜50 cercariae were added to each shallow well on the lid. 10 μL of SPF (dissolved in APW) was then added to reach the final concentration indicated. Using a high-speed camera (Olympus i-SPEED TR), attached to a stereomicroscope (Leica MZ125, Leica Microsystems, Wetzlar, Germany), we recorded cercariae movement at 20-60 fps at 1.25× magnification just prior to addition of test compounds until 3-4 minutes after treatment started. Raw movies were converted to .avi files using i-SPEED Viewer and compressed into JPEG format using ImageJ (addition of compound is considered time 0). We then counted the numbers of free swimming/paralyzed cercariae every 5 seconds for 1 minute and every 30 seconds thereafter for 3 minutes. The number of dead cercariae (those that never swim before and after SPF treatment) were subtracted from data. Experiments were performed in triplicate.
To determine if cercariae react to SPF or other analogs in a dose-dependent manner, serial dilutions of SPF were made in APW. To quantify the paralysis effect of SPF, the movement of the cercariae was recorded, as well as the number of free-swimming and non-swimming cercariae. In the absence of SPF, over 82% of cercariae were free-swimming over three minutes (FIG. 1(A)). In the presence of 2.5 nM SPF, the percentage of free-swimming cercariae dropped to 67% at three minutes post drug treatment. As the concentration of SPF increased, the rate of paralysis increased, and more cercariae were paralyzed at the end of the treatment.

S. mansoni cercariae [2] = experiment: Mouse infection experiment (mouse tail exposure to drug-treated cercariae); format: in vivo; conditions: for liver granulomas / schistosome eggs in histological liver sections / adult worms recovered from infected mice: six weeks post infection
Protocol: Mouse Infection Experiment
Mouse infections were performed by exposing mouse tails to S. mansoni cercariae according to standard protocol from BRI with slight modifications (see Lewis et al., Curr. Protoc. Immunol., 2001, Chapter 19). Briefly, we secured mice in rodent restrainers (Thomas Scientific, Cat #551-BSRR) and put them vertically on top of a rack with grids. We pipetted 100 μL of each drug in proper concentration into a skinny glass tube (Fisher Scientific, Cat #14-958A) inside a 12×75 mm holding glass tube (VWR, Cat #47729-570). 300 μL of APW containing ˜200 cercariae were pipetted into each skinny tube and incubated for 10 mins before we inserted mouse tail. Mouse tails were wiped with APW-moistened Kimwipes, inserted into the skinny tube, and exposed to cercariae for 30 mins. We sacrificed and perfused these mice six week-post infection. For each drug, we initially used three mice for controls (APW only) and three mice for each concentration tested except for 25 nM Ht-13-A and Ht-13-A-pr. We then repeated the experiments again with three mice for each condition. In addition, we included six mice for 25 nM Ht-13-A and Ht-13-A-pr so that we had six biological replicates total for each condition.
Adult worms were recovered by hepatic portal vein perfusion and briefly incubated in 2.5% Tricaine (Sigma) to separate males and females. We counted total numbers of adult worms under a stereomicroscope (Leica MZ75, Leica Microsystems). Livers from infected mice were fixed in 4% formaldehyde in PBS overnight. Largest liver lobes (left lobe) were submitted to University of Wisconsin-Madison Histology Core Facility for sectioning and Hematoxylin and Eosin staining. Each left lobe was evenly cut into 4-6 pieces and paraffin embedded on a large cassette. One slide (4-6 liver sections) for each liver was used for histological examination, which provided a representative view throughout the whole liver lobe. We took a tiled image of the whole slide using a Zeiss Axio Zoom microscope and used ImageJ (National Institutes of Health, Bethesda, Md.) to determine the area of each section. Total numbers of eggs in each section were counted and normalized to the area.
To determine if SPF-induced paralysis could prevent infection, ˜200 cercariae were treated with different concentrations of SPF (25 nM, 250 nM, and 2.5 μM) for 10 min followed by a 30 min mouse tail infection (N=6 for each condition). Six-weeks post infection, the mice were euthanized, hepatic portal vein perfusion was performed, recovered schistosomes were counted, and mouse liver pathology was examined. In the control group, 83 adult worms were recovered on average (FIG. 2(A)). Livers from these mice appeared dark in color and had extensive granuloma formation (FIG. 2(A)). […] Without wishing to be bound by theory, it is possible that mechanical and/or chemical stimuli from mouse tails may overcome the SPF-induced paralytic effects at low SPF concentrations.

COc1ccc2[nH]cc3c2c1OC1C(C)CN(C)C1C3 (centres unmarked) [SPF, 5-methoxy-7,9-dimethyl-6a,7,8,9,9a,10-hexahydro-2H-pyrrolo[2′,3′:6,7]oxepino[4,3,2-cd]indole]
percentage of free-swimming cercariae (S. mansoni cercariae [1]; 2.5 nM, three minutes post drug treatment): 67% | paralytic effect on cercariae (S. mansoni cercariae [1]; 25 nM, in vitro): could paralyze most cercariae | paralytic effect on cercariae (S. mansoni cercariae [1]; 250 nM): maximum paralytic effect; also recorded: full paralysis | time until majority of cercariae paralyzed (S. mansoni cercariae [1]; 250 nM): ≤ 30 s | paralytic effect on cercariae (S. mansoni cercariae [1]; 2.5 μM): maximum paralytic effect; also recorded: full paralysis | time until majority of cercariae paralyzed (S. mansoni cercariae [1]; 2.5 μM): ≤ 30 s | effect on mouse infection (S. mansoni cercariae [2]; 25 nM): not as severe | blocking / inhibition of infection (S. mansoni cercariae [2]; 250 nM): complete inhibition of infection | liver granulomas (S. mansoni cercariae [2]; 250 nM): no granulomas were observed | schistosome eggs in histological liver sections (S. mansoni cercariae [2]; 250 nM): clear of schistosome eggs | blocking / inhibition of infection (S. mansoni cercariae [2]; 2.5 μM): complete inhibition of infection | liver granulomas (S. mansoni cercariae [2]; 2.5 μM): no granulomas were observed | schistosome eggs in histological liver sections (S. mansoni cercariae [2]; 2.5 μM): clear of schistosome eggs | adult worms recovered from infected mice (S. mansoni cercariae [2]; cercariae treated with 250 nM for 10 min): no adult worms could be recovered | adult worms recovered from infected mice (S. mansoni cercariae [2]; cercariae treated with 2.5 μM for 10 min): no adult worms could be recovered | liver appearance (post perfusion) (S. mansoni cercariae [2]; higher concentrations of drug treatment): normal morphologies with few or no granulomas | liver appearance (post perfusion) (S. mansoni cercariae [2]; lower concentrations of drug): darker in color and contained more granulomas
